Source: patent publication US20260015599A1, “TARGETING THE STING1 GENE BY CRISPR ACTIVATION” (AARHUS UNIVERSITET, priority 2022, published 2026)
Like-named read-outs stand apart in the source and are kept apart here.

Columns and labels:
[1] = test system: cGAS-STING signalling pathway; experiment: Stimulation of human sarcoma cell lines with cGAS, STING and RIG-I agonists, cytokine secretion; format: cell-based
Protocol: For stimulation in vitro, 30,000 or 60,000 cells were seeded per well in a 24-well plate one day prior to stimulation. Cells were stimulated by transfection using Lipofectamine 2000 transfection reagent (Invitrogen, Cat#: 11668019) combined with the following agents: 2 μg/mL HT-DNA (Sigma-Aldrich, Cat#: D6898), 8 μg/mL 2′3′-cGAMP (Invivogen, Cat#: tlrl-nacga23-5), and 40 ng/ml Poly(I:C)-LMW (Invivogen, Cat#: tlrl-picw). An untreated control and a lipofectamine 2000 control were included. All samples were run in biological duplicates or triplicates. […]
Supernatants from cells stimulated with HT-DNA and Poly(I:C) were analyzed for Interferonβ (IFNβ), CXCL10 and IL-6 using Meso Scale Discovery multiplex Enzyme-linked Immunosorbent assay.
Supernatants from cells stimulated with 2′3′-cGAMP were analyzed for CXCL10 and IL-6 using sandwich ELISA (RnD Systems, Cat#: DY299 and Cat#: DY206). CCL5 content in supernatants from cells stimulated with HT-DNA and Poly(I:C) were analyzed using sandwich ELISA (RnD Systems, Cat#: DY278). […]
Functional type I IFN in supernatants from cells stimulated with 2′3′-cGAMP was quantified using a type I interferon reporter cell assay (HEK-Blue IFN-α/β) (Invivogen, Cat#: hkb-ifnab) according to manufacturer's guidelines. […] The concentration of type I IFN was determined from a standard curve of IFN-a (PBL Assay Science, Cat#: 11100-1). […]

STING = experiment: Cytokine gene expression (qPCR) in STING-reactivated SW872 after doxorubicin treatment; format: cell-based, human; conditions: SW872 after CRISPRa targeting STING (sgRNA #4 + dCas9-VPR mRNA), doxorubicin at IC50, 48 hrs
Protocol: For each sample 500,000 cells were resuspended in PBS, spun down at 300 xG for 5 minutes at room temperature (RT) and resuspended in 17 μL opti-MEM (Gibco, Cat#: 31985070). 1.9 μL of dCas9-VPR mRNA (Horizon Discovery, Cat#: CAS12211) and 1 μg of sgRNA was added. The cell suspension was added to an electroporation strip and electroporated on a Lonza 4D nucleofector using pulse code CM138. Afterwards, the electroporation strip containing the cells was left for 3 minutes on the bench top to allow cells to reform. The samples were diluted in preheated DMEM complete and 60,000 wt cells and 120,000 mock and STING+ cells were seeded in a 12-well plate one day prior to doxorubicin treatment to allow cells to adhere.
(§1) Wt, mock and STING+ cells were treated with IC50 values of doxorubicin in biological triplicates (IC50 for wt: 0.5 μM and IC50 for mock and STING+: 0.3 μM) and left for 48 hrs before harvest.
RNA from cells was purified using NucleoSpin RNA for the isolation of total RNA (Macherey-Nagel, Cat#: 740984.250M) according to manufacturer's guidelines. cDNA was synthesized using iScript cDNA Synthesis Kit (Bio-Rad, Cat#: 1708891) according to manufacturer's guidelines using 400ng of RNA. Real-time PCR was carried out using 1 μL of 10 ng/μL cDNA in a total volume of 10 μL using KAPA SYBR FAST (Roche, Cat#: KK4611) and the following targets and primers: […]
Samples were run in biological triplicates and technical duplicates on a 384 well plate (Hounisen, Cat#: 72.1985.202). The analysis was performed using the LightCycler 480 software version LCS480 1.5.1.62(Roche).
The cancer cell line SW872 was electroporated with dCas9-VPR mRNA and either nothing (mock) or sgRNA #4 and after additional 24 hrs each cell condition was exposed to the anthracycline chemotherapy drug doxorubicin. Doxorubicin's mode-of-action is to increase DNA damage leakage and this has shown to induce a STING-dependent immune response in conjunction to the cellular toxicity is has on cancer cells.
Supernatants were collected 48 hrs after doxorubicin treatment and immune activation was assessed by qPCR (FIG. 8A-E).

SW872 = experiment: Doxorubicin IC50 viability determination (CellTiter 96 AQueous One Solution Cell Proliferation Assay); format: cell-based; conditions: Homo sapiens, SW872, 48 h, 48 hrs of treatment, read-out: IC50 viability concentration
Protocol: Prior to analysing the immunological reponse to doxorubicin treatment (Sigma-Aldrich, Cat#: D1515-10 MG), and IC50 viability concentration was determined for both wt cells and electroporated cells (mock and STING+). A two-fold dilution of doxorubicin including 10 different dilutions ranging from 16 μM to 0.03125 μM was added to a cell culture and viability was determined using CellTiter 96 AQueous One Solution Cell Proliferation Assay (Promega, Cat#: G3580) after 48 hrs of treatment.
as §1

human STING gene = experiment: CRISPR activation of STING in SW872, STING expression by immunoblotting and qPCR; format: cell-based; conditions: SW872, electroporated with dCas9-VPR mRNA, 48 hours
From the text: To upregulate STING, CRISPR activation technique was used. Synthetic guideRNAs (sgRNAs) are used to guide a deactivated Cas9 (dCas9) to a site in the vicinity of the transcriptional start site of STING. Attached to the dCas9 are three transcription activators (VP64, Rta, p65; collectively termed VPR), which can activate transcription of the target gene. The dCas9-VPR is delivered as mRNA and is translated by the translation apparatus in the host cell.
To test the ability of the individual sgRNAs to upregulate STING expression, each sgRNA was tested individually as well as all 5 sgRNAs together in the human sarcoma cell line SW872 or HT1080. The sequence of the DNA binding part of the 5 sgRNAs were the following:
sgRNAs were purchased from Synthego and comprise 2′-O-Methyl at the three first and last bases as well as 3′ phosphorothioate bonds between the first three and last two bases.
dCas9-VPR mRNA (SEQ ID NO: 29 as produced by in vitro transcription) (or purchased from Horizon Discovery, Cat#: CAS12211) comprises full substitution of uridine with pseudouridine and cotranscriptional capping with CleanCap AG in a 1:4 ratio between GTP and CleanCap.
For each sample 500,000 cells were resuspended in PBS, spun down at 300 xg for 5 minutes at room temperature (RT) and resuspended in 17 μL opti-MEM (Gibco, Cat#: 31985070). 1.9 μL of dCas9-VPR mRNA (Horizon Discovery, Cat#: CAS12211) (SEQ ID NO: 29) and 1 μg of sgRNA (1 μg of each sgRNA in the sample with all 5 sgRNAs) were added. The cell suspensions were added to an electroporation strip and electroporated on a Lonza 4D nucleofector using pulse code CM138. Afterwards, the electroporation strip containing the cells were left for 3 minutes on the bench top to allow cells to reform. The samples were diluted in preheated DMEM complete medium and cells were seeded at 50-100.000 cells per well in a 24-well plate and left for various days before harvest. […]

## Nc1nc2c(ncn2[C@@H]2O[C@@H]3COP(=O)(O)O[C@H]4[C@@H](O)[C@H](n5cnc6c(N)ncnc65)O[C@@H]4COP(=O)(O)O[C@@H]2[C@@H]3O)c(=O)[nH]1 [2′3′-cGAMP, 2′,3′-cyclic GMP-AMP]
[1]; SW872, 20-24 hours of activation
  cell responsiveness (secretion levels of IFNb, CXCL10, IL6 or CCL5): not responding

## COc1cccc2c1C(=O)c1c(O)c3c(c(O)c1C2=O)C[C@@](O)(C(=O)CO)C[C@@H]3O[C@H]1C[C@H](N)[C@H](O)[C@H](C)O1 [doxorubicin]
STING
  gene expression of CCL5: increased
  gene expression of CXCL10: increased
  gene expression of IFNb: increased
SW872; mock and STING+ (electroporated) SW872 cells
  IC50: 0.3 µM
SW872; wt SW872 cells
  IC50: 0.5 µM

## Poly(I:C)
[1]; all four cell lines (HT-1080, SW872, SW982, SK-LMS1), 20-24 hours of activation
  cell responsiveness (secretion levels of IFNb, CXCL10, IL6 or CCL5): responded

## sgRNA #4: sgRNA targeting human STING gene, DNA binding part CAGAAACCGGCAGGCUCUCU (listed as RNA, chemistry not fully specified)
Human STING gene
  STING expression (immunoblotting, qPCR): equally or better than the combination of all five sgRNAs
Human STING gene; listed as SEQ ID NO: 4
  STING expression (immunoblotting, qPCR): highest activity
Human STING gene; listed as sgRNA#4
  STING expression (immunoblotting, qPCR): highest expression level
